Patent US8133986B2, “Methylated CpG island amplification (MCA)” (The Johns Hopkins University School of Medicine, priority 1998, dated 2012)

Tests used:
Assay type in all cases: cell-based, human
[1] = tested on: versican; experiment: RT-PCR expression of versican in methylated colon cancer cell lines after demethylating treatment; details: 1 μM for 2-5 days
Source text: To determine whether some of these clones truly represented genes silenced by methylation, we examined the versican gene in more detail. Versican is a secreted glycoprotein that appears to be regulated by the Rb tumor suppressor gene. MINT11 corresponds to part of exon 1 and part of intron 1 of the versican gene (FIG. 3A). Hypermethylation of the two SmaI sites in exon 1 and intron 1 in colon cancer cell lines was confirmed by both Southern blot analysis and MCA. In order to determine if this methylation was representative of the entire CGI, including the proximal promoter, PCR was performed on bisulfite-treated DNA using primers designed to amplify the region around the transcription start site of this gene. The PCR product was then digested with restriction enzymes that distinguish methylated from unmethylated DNA. […] In primary colon tumors, versican was hypermethylated in 17 out of 25 cases (68%). […] The level of methylation in normal colon mucosa increased with age of the patient (FIG. 3C), from an average of 6.9% in patients between 20 and 30 years of age, to an average of 28.9% in patients over 80. […] Using RT-PCR, we next examined the expression of versican in normal colon mucosa and CRC cell lines.
Total RNA was prepared from normal colon epithelium and tumor cell lines using TRIZOL (GIBCO-BRL). […] The expression of versican was determined by RT-PCR using the primers […]

[2] = tested on: CACNA1G; experiment: Re-expression of CACNA1G mRNA (RT-PCR) in methylated tumor cell lines after methyl-transferase inhibitor treatment; set-up: dose or concentration left out as unconfirmed; details: RKO, SW48, Raji (pattern 4) and MB-231, MB-435 (pattern 5) cell lines; treated
Method: To determine the expression of CACNA1G in normal and neoplastic human cells, RT-PCR was performed using cDNA from various normal tissues and from a panel of 27 tumor cell lines. CACNA1G was expressed ubiquitously in a variety of tissues and cell lines. In normal tissues expression was relatively low but easily detectable, while most cell lines had relatively high expression of CACNA1G. However, some cell lines had negligible or totally absent levels of CACNA1G expression. The results of CACNA1G expression was correlated with the detailed methylation analysis previously described. In this analysis, a remarkable pattern emerged. Methylation of region 1-4 and 8 had no effect on CACNA1G expression. However, there was a strong correlation between methylation of regions 5-7 and expression of the gene. In fact, all cell lines that lack methylation of this region strongly express the gene. All 6 cell lines with pattern 4 methylation studied had no detectable expression. Finally, the 7 cell lines with pattern 5 methylation (examples DLD-1 and MB-453) had variable levels of expression ranging from very low to near normal. […]
Total RNA was prepared from normal colon epithelium and tumor cell lines using TRIZOL (GIBCO-BRL). […] The expression of versican was determined by RT-PCR using the primers

[3] = tested on: region 7 of CACNA1G CpG island; experiment: Bisulfite-PCR methylation analysis of the 5′ CpG island of CACNA1G after treatment; details: same cell lines after treatment; bisulfite-PCR (FIG. 3C)
Source text: The CACNA1G CpG island is 4 kb, and is larger than many typical CpG islands. MINT31 corresponds to the 5′ edge of the island while CACNA1G is in the 3′ region. It is not known whether large CpG islands such as this are coordinately regulated with regards to protection from methylation, and aberrant methylation in cancer. To address this issue, the methylation status of the 5′ region of CACNA1G was studied using bisulfite-PCR of DNA from normal tissues as well as 35 human cancer cell lines from colon, lung, prostate, breast and hematopoietic tumors. The CpG island was divided into 8 regions and their methylation status was examined separately. The genomic DNA was treated with sodium bisulfite and PCR amplified using primers containing no or a minimum number of CpG sites. Methylated alleles were detected by digesting the PCR products using restriction enzymes which specifically cleave sites created or retained due to the presence of methylated CpGs. None of the regions was methylated in normal colon, consistent with a uniform protection against de-novo methylation. […]

With `Nc1ncn([C@H]2C[C@H](O)[C@@H](CO)O2)c(=O)n1` [5-aza-deoxycytidine, 5-aza-2′-deoxycytidine] as the compound, how does the Expression of versican [1] read?
The Expression of versican was “easily restored”.

And the “CACNA1G mRNA expression” value [2]?
Its value is “re-expressed”.

And the “Methylation of region 7 of CACNA1G” value [3]?
Its value is “demethylation of region 7 was observed”.
